Test results reported in ChEMBL document CHEMBL3997825, “Discovery of 2-oxopiperazine dengue inhibitors by scaffold morphing of a phenotypic high-throughput screening hit” (Bioorg Med Chem Lett, 2017).
≈ marks a conversion by molar mass, not a printed value.

Columns and labels:
dengue virus type 2 = test: Antiviral activity against DENV2 MY97-10340 infected in human A549 cells assessed as decrease in envelope protein production after 48 hrs by immunodetection method; type: functional, cell-based; conditions: MY97-10340, A549, 48 h
[1] = Cytotoxicity against human HepG2 cells; type: cell-based
dengue virus type 3 = test: Antiviral activity against DENV3 MY05-34640 infected in human A549 cells assessed as decrease in envelope protein production after 48 hrs by immunodetection method; type: functional, cell-based; conditions: MY05-34640, A549, 48 h
dengue virus type 4 = test: Antiviral activity against DENV4 MY01-22713 infected in human A549 cells assessed as decrease in envelope protein production after 48 hrs by immunodetection method; type: functional, cell-based; conditions: MY01-22713, A549, 48 h
dengue virus type 1 = test: Antiviral activity against DENV1 MY97-10245 infected in human A549 cells assessed as decrease in envelope protein production after 48 hrs by immunodetection method; type: functional, cell-based; conditions: MY97-10245, A549, 48 h
[2] = Lipophilicity, log D of the compound at pH 7.4; type: physicochemical; conditions: buffer
[3] = Intrinsic clearance in human liver microsomes; type: ADME, microsome; conditions: read-out: CLH
[4] = Solubility of the compound at pH 6.8; type: physicochemical; conditions: buffer

Row | Structure (SMILES) | EC50 (dengue virus type 2) | CC50 [1] | EC50 (dengue virus type 3) | EC50 (dengue virus type 4) | EC50 (dengue virus type 1) | logD [2] | microsomal CLint [3] | solubility [4]
1 | CSc1cccc(N2C(=O)CN(c3cccnc3)CC2C(=O)NC2CCCC2)c1 (stereo not drawn) | > 50000 nM | > 50000 nM | 31000 nM | 45000 nM | > 50000 nM |  |  | 
2 | O=C(Nc1cccnc1)C1CN(c2ccccc2)CC(=O)N1c1ccc2ccsc2c1 (stereo not drawn) | 2700 nM | > 50000 nM | 500 nM | 1700 nM | 5600 nM |  |  | 
3 | CSc1cccc(N2C(=O)CN(c3cncc(C(F)(F)F)c3)CC2C(=O)NC2CCCC2)c1 (stereo not drawn) | > 50000 nM | > 50000 nM | 13000 nM | 28000 nM | > 50000 nM |  |  | 
4 | CSc1cccc(N2C(=O)CN(c3ccc(C(F)(F)F)cc3)CC2C(=O)NC2CCCC2)c1 (stereo not drawn) | 600 nM | 10000 nM | 200 nM | 200 nM | 500 nM |  |  | 
5 | CSc1cccc(N2C(=O)c3cc4ccc(C(F)(F)F)cc4n3C[C@]2(C)C(=O)NC2CCCC2)c1 | 5100 nM | 20000 nM | 600 nM | 1500 nM | 5500 nM |  |  | 
6 | O=C(NC1CCCC1)C1CN(c2ccc(C(F)(F)F)cc2)CC(=O)N1c1ccc2ccoc2c1 (stereo not drawn) | 1000 nM | 20000 nM | 400 nM | 500 nM | 800 nM |  |  | 
7 | O=C(NC1CCCC1)[C@H]1CN(c2ccc(C(F)(F)F)cc2)CC(=O)N1c1ccc2ccsc2c1 | 5700 nM | 10000 nM | 2600 nM | 2600 nM | 6900 nM |  |  | 
8 | CC(=O)c1cccc(N2C(=O)CN(c3cccc(C(F)(F)F)c3)CC2C(=O)NC2CCCC2)c1 (stereo not drawn) | 10000 nM | 40000 nM | 2200 nM | 6300 nM | 7100 nM |  |  | 
9 | CSc1cccc(N2C(=O)CN(c3cccc(C#N)c3)CC2C(=O)NC2CCCC2)c1 (stereo not drawn) | 7400 nM | > 50000 nM | 1700 nM | 2500 nM | 4100 nM |  |  | 
10 | NC(=O)c1cccc(NC(=O)C2CN(c3ccccc3)CC(=O)N2c2ccc3ccsc3c2)c1 (stereo not drawn) | 1500 nM | > 50000 nM | 130 nM | 1900 nM | 2000 nM |  |  | 
11 | COc1cccc(N2CC(=O)N(c3cccc(SC)c3)C(C(=O)NC3CCCC3)C2)c1 (stereo not drawn) | 5400 nM | > 50000 nM | 1600 nM | 2400 nM | 2900 nM |  |  | 
12 | CSc1cccc(N2C(=O)c3cc4ccc(C(F)(F)F)cc4n3CC2(C)C(=O)NC2CCCC2)c1 (stereo not drawn) | 200 nM | > 50000 nM | 50 nM | 170 nM | 80 nM |  |  | 
13 | N#Cc1cccc(NC(=O)C2CN(c3ccccc3)CC(=O)N2c2ccc3ccsc3c2)c1 (stereo not drawn) | 2000 nM | > 50000 nM | 90 nM | 1200 nM | 2800 nM |  |  | 
14 | CC(F)(F)c1cccc(N2C(=O)CN(c3cccc(C(F)(F)F)c3)CC2C(=O)NC2CCCC2)c1 (stereo not drawn) | 2200 nM | 9000 nM | 400 nM | 800 nM | 1900 nM |  |  | 
15 | O=C(NC1CCCC1)C1CN(c2ccccc2)CC(=O)N1c1ccc2ccsc2c1 (stereo not drawn) | 1500 nM | > 50000 nM | 170 nM | 900 nM | 2400 nM |  |  | 
16 | O=C(NC1CCCC1)C1CN(c2ccc(C(F)(F)F)cc2)CC(=O)N1c1cnc2ccsc2c1 (stereo not drawn) | 900 nM | 30000 nM | 300 nM | 400 nM | 500 nM |  |  | 

Row | Structure (SMILES) | EC50 (dengue virus type 2) | CC50 [1] | EC50 (dengue virus type 3) | EC50 (dengue virus type 4) | EC50 (dengue virus type 1) | logD [2] | microsomal CLint [3] | solubility [4]
17 | CSc1cccc(N(C(=O)c2cc3ccc(C(F)(F)F)cc3[nH]2)[C@@H](C)C(=O)NC2CCCC2)c1 | 1700 nM | 7100 nM | 2000 nM | 1500 nM | 2200 nM |  |  | 
18 | O=C(NCC1CC1)C1CN(c2ccccc2)CC(=O)N1c1ccc2ccsc2c1 (stereo not drawn) | 2200 nM | > 50000 nM | 200 nM | 600 nM | 6200 nM |  |  | 
19 | CSc1cccc(N(C(=O)c2cc3ccc(C(F)(F)F)cc3[nH]2)[C@H](C)C(=O)NC2CCCC2)c1 | 3600 nM | 15000 nM | 2500 nM | 2600 nM | 5300 nM |  |  | 
20 | CSc1cccc(N2C(=O)CN(c3ccccc3)CC2C(=O)NC2CCCC2)c1 (stereo not drawn) | 11000 nM | > 50000 nM | 800 nM | 2000 nM | 2000 nM |  |  | 
21 | O=C(NC1CCCC1)C1CN(c2ccc(C(F)(F)F)cc2)CC(=O)N1c1ccc2ccsc2c1 (stereo not drawn) | 300 nM | 10000 nM | 80 nM | 100 nM | 200 nM |  |  | 
22 | CSc1cccc(NC(=O)c2cc3ccc(C(F)(F)F)cc3n2CC(C)C(=O)NC2CCCC2)c1 (stereo not drawn) | 10000 nM | 7100 nM | 3900 nM | 2000 nM | 5100 nM |  |  | 
23 | CSc1cccc(N2C(=O)c3ccc(-c4ccco4)n3CC2(C)C(=O)NC2CCCC2)c1 (stereo not drawn) | 500 nM | > 50000 nM | 90 nM | 420 nM | 320 nM |  |  | 
24 | O=C(NC1CCCC1)[C@@H]1CN(c2ccc(C(F)(F)F)cc2)CC(=O)N1c1ccc2ccsc2c1 | 100 nM | 20000 nM | 30 nM | 30 nM | 70 nM | > 4.5 | 59 µL/min/mg | < 4 µM
25 | O=C(NC1CCCC1)C1CN(c2cccc(C(F)(F)F)c2)CC(=O)N1c1cccc(OC(F)(F)F)c1 (stereo not drawn) | 1700 nM | 8000 nM | 400 nM | 700 nM | 1100 nM |  |  | 
26 | O=C(NC1CCC1)C1CN(c2ccccc2)CC(=O)N1c1ccc2ccsc2c1 (stereo not drawn) | 1000 nM | > 50000 nM | 50 nM | 200 nM | 1800 nM |  |  | 
27 | CSc1cccc(N2C(=O)CN(c3cc(C(F)(F)F)ccc3C)CC2C(=O)NC2CCCC2)c1 (stereo not drawn) | 8000 nM | 10000 nM | 6500 nM | 5800 nM | 6100 nM |  |  | 
28 | CSc1cccc(N(CC(=O)NC2CCCC2)C(=O)c2cc3ccc(C(F)(F)F)cc3n2C)c1 | 3000 nM | 6300 nM | 2300 nM | 1500 nM | 3100 nM |  |  | 
29 | CSc1cccc(N2C(=O)c3cc4ccc(C(F)(F)F)cc4n3C[C@@]2(C)C(=O)NC2CCCC2)c1 | 90 nM | 20000 nM | 10 nM | 50 nM | 40 nM | > 4.5 | > 735 µL/min/mg | < 4 µM
30 | CSc1cccc(N2C(=O)CN(c3ccccc3)CC2(C)C(=O)NC2CCCC2)c1 (stereo not drawn) | 11000 nM | > 50000 nM | 1300 nM | 2500 nM | 4000 nM |  |  | 
31 | CSc1cccc(N2C(=O)CN(c3cccc(C(F)(F)F)c3)CC2C(=O)NC2CCCC2)c1 (stereo not drawn) | 1000 nM | 20000 nM | 300 nM | 600 nM | 700 nM |  |  | 4 µM (≈ 1.91 µg/mL)
32 | CSc1cncc(N2C(=O)CN(c3cccc(C(F)(F)F)c3)CC2C(=O)NC2CCCC2)c1 (stereo not drawn) | 1200 nM | 26000 nM | 200 nM | 600 nM | 400 nM |  |  | 40 µM (≈ 19.1 µg/mL)
